Legend:
[1] = Stability test in case of including UV shielding agent of inorganic powder (sun-screen cream); format: physicochemical; conditions: sun-screen cream with inorganic powder, 10.0 wt % ultraviolet absorbent; 2 months at 50° C.; visual observation
Experimental: The sun screen cream of the following formulation was manufactured. These were preserved for 2 months at 50° C. By visual observation of discoloration, the inventors have checked stability when using an UV shielding agent of inorganic powder which is included as external skin preparation for the ultraviolet rays defense.
After (2) was added to (1) and was swelled sufficiently, (3) to (11) was added thereto and was mixed with heating. The mixture was sufficiently dissolved with dispersing. This dispersed liquid was kept at 70° C. After this dispersed liquid was emulsified homogeneously by homomixer with adding a mixture of (12) to (15) gradually, which was cooled to 30° C. with stirring well to obtain sun screen.

[2] = Perfume stabilization effect (sequestering agent combination); parameters: key to Sunlight exposure (80 MJ) Smell evaluation: A: No change; B: No almost change; C: Yes change; conditions: for smell change: with a sequestering agent, compared with compositions without; for Sunlight exposure (80 MJ) Smell evaluation: amounts wt %
Experimental: Next, for combinations with sequestering agent, photostabilization effect for each perfume was studied by the following evaluation formulation.
Each test sample was prepared. Smell change of samples exposed to sunlight (80 MJ) was observed (judgement by perfumier).

With `Oc1nncc(N2CCOCC2)c1N1CCOCC1` [4,5-Dimorpholino-3-hydroxypyridazine] the Discoloration [1] was “No”, the smell change ([2]; base perfume, Table 29) was “very small” and the “Sunlight exposure (80 MJ) Smell evaluation” value (from here on “Sunlight exposure”) ([2]; natural perfume Bergamot oil 0.03, photostabilizer 0.05 + Trisodium ethylenediamine tetraacetate 0.03) was “A”. For the same compound, the “Sunlight exposure” value ([2]; natural perfume Bergamot oil 0.03, photostabilizer 0.05, no sequestering agent) was “B”, the “Sunlight exposure” value ([2]; natural perfume Jasmine oil 0.03, photostabilizer 0.02 + Sodium metaphosphate 0.03) was “A” and the “Sunlight exposure” value ([2]; natural perfume Jasmine oil 0.03, photostabilizer 0.02, no sequestering agent) was “B”. For the same compound, the “Sunlight exposure” value ([2]; natural perfume Lavender oil 0.03, photostabilizer 0.02 + Trisodium hydroxyethyl ethylenediamine triacetate 0.03) was “A”, the “Sunlight exposure” value ([2]; natural perfume Lavender oil 0.03, photostabilizer 0.02, no sequestering agent) was “B” and the “Sunlight exposure” value ([2]; natural perfume Musk oil 0.03, photostabilizer 0.1 + Sodium metaphosphate 0.03) was “A”. The “Sunlight exposure” value ([2]; natural perfume Musk oil 0.03, photostabilizer 0.1, no sequestering agent) was “B”, the “Sunlight exposure” value ([2]; natural perfume Orange oil 0.03, photostabilizer 0.05 + Sodium metaphosphate 0.03) was “A” and the “Sunlight exposure” value ([2]; natural perfume Orange oil 0.03, photostabilizer 0.05, no sequestering agent) was “B”. The “Sunlight exposure” value ([2]; natural perfume Peppermint oil 0.03, photostabilizer 0.01 + Trisodium ethylenediamine triacetate 0.03) was “A”, the “Sunlight exposure” value ([2]; natural perfume Peppermint oil 0.03, photostabilizer 0.01, no sequestering agent) was “B” and the “Sunlight exposure” value ([2]; natural perfume Rose oil 0.03, photostabilizer 0.02 + Trisodium ethylenediamine tetraacetate 0.03) was “A”. For the same compound, the “Sunlight exposure” value ([2]; natural perfume Rose oil 0.03, photostabilizer 0.02, no sequestering agent) was “B”, the “Sunlight exposure” value ([2]; natural perfume Ylang ylang oil 0.03, photostabilizer 0.02 + Trisodium hydroxyethyl ethylenediamine triacetate 0.03) was “A” and the “Sunlight exposure” value ([2]; natural perfume Ylang ylang oil 0.03, photostabilizer 0.02, no sequestering agent) was “B”. For the same compound, the smell change ([2]; natural perfume, Table 27) was “very small”, the “Sunlight exposure” value ([2]; perfume Aldehyde 0.03, photostabilizer 0.05 + Trisodium hydroxyethyl ethylenediamine triacetate 0.03) was “A” and the “Sunlight exposure” value ([2]; perfume Aldehyde 0.03, photostabilizer 0.05, no sequestering agent) was “B”. For the same compound, the “Sunlight exposure” value ([2]; perfume Animal 0.03, photostabilizer 0.1 + Trisodium ethylenediamine tetraacetate 0.03) was “A”, the “Sunlight exposure” value ([2]; perfume Animal 0.03, photostabilizer 0.1, no sequestering agent) was “B” and the “Sunlight exposure” value ([2]; perfume Fruity 0.03, photostabilizer 0.03 + Sodium metaphosphate 0.03) was “A”. For the same compound, the “Sunlight exposure” value ([2]; perfume Fruity 0.03, photostabilizer 0.03, no sequestering agent) was “B”, the “Sunlight exposure” value ([2]; perfume Green 0.03, photostabilizer 0.01 + Trisodium hydroxyethyl ethylenediamine triacetate 0.03) was “A” and the “Sunlight exposure” value ([2]; perfume Green 0.03, photostabilizer 0.01, no sequestering agent) was “B”. For the same compound, the “Sunlight exposure” value ([2]; perfume Jasmine 0.03, photostabilizer 0.02 + Trisodium ethylenediamine tetraacetate 0.03) was “A”, the “Sunlight exposure” value ([2]; perfume Jasmine 0.03, photostabilizer 0.02, no sequestering agent) was “B” and the “Sunlight exposure” value ([2]; perfume Muguet 0.03, photostabilizer 0.02 + Sodium metaphosphate 0.03) was “A”. The “Sunlight exposure” value ([2]; perfume Muguet 0.03, photostabilizer 0.02, no sequestering agent) was “B”, the “Sunlight exposure” value ([2]; perfume Oriental 0.03, photostabilizer 0.01 + Trisodium ethylenediamine tetraacetate 0.03) was “A” and the “Sunlight exposure” value ([2]; perfume Oriental 0.03, photostabilizer 0.01, no sequestering agent) was “B”. For the same compound, the “Sunlight exposure” value ([2]; perfume Rose 0.03, photostabilizer 0.02 + Trisodium hydroxyethyl ethylenediamine triacetate 0.03) was “A”, the “Sunlight exposure” value ([2]; perfume Rose 0.03, photostabilizer 0.02, no sequestering agent) was “B” and the “Sunlight exposure” value ([2]; synthetic perfume Benzyl benzoate 0.03, photostabilizer 0.02 + Trisodium hydroxyethyl ethylenediamine triacetate 0.03) was “A”. For the same compound, the “Sunlight exposure” value ([2]; synthetic perfume Benzyl benzoate 0.03, photostabilizer 0.02, no sequestering agent) was “B”, the “Sunlight exposure” value ([2]; synthetic perfume Citral 0.03, photostabilizer 0.01 + Trisodium hydroxyethyl ethylenediamine triacetate 0.03) was “A” and the “Sunlight exposure” value ([2]; synthetic perfume Citral 0.03, photostabilizer 0.01, no sequestering agent) was “B”. For the same compound, the “Sunlight exposure” value ([2]; synthetic perfume Lilial 0.03, photostabilizer 0.1 + Sodium metaphosphate 0.03) was “A”, the “Sunlight exposure” value ([2]; synthetic perfume Lilial 0.03, photostabilizer 0.1, no sequestering agent) was “B” and the “Sunlight exposure” value ([2]; synthetic perfume Limonene 0.03, photostabilizer 0.02 + Trisodium hydroxyethyl ethylenediamine triacetate 0.03) was “A”. For the same compound, the “Sunlight exposure” value ([2]; synthetic perfume Limonene 0.03, photostabilizer 0.02, no sequestering agent) was “B”, the “Sunlight exposure” value ([2]; synthetic perfume Oranthiol 0.03, photostabilizer 0.05 + Sodium metaphosphate 0.03) was “A” and the “Sunlight exposure” value ([2]; synthetic perfume Oranthiol 0.03, photostabilizer 0.05, no sequestering agent) was “B”. For the same compound, the “Sunlight exposure” value ([2]; synthetic perfume Rose oxide 0.03, photostabilizer 0.05 + Trisodium ethylenediamine tetraacetate 0.03) was “A”, the “Sunlight exposure” value ([2]; synthetic perfume Rose oxide 0.03, photostabilizer 0.05, no sequestering agent) was “B” and the “Sunlight exposure” value ([2]; synthetic perfume cis-3-Hexenol 0.03, photostabilizer 0.02 + Trisodium ethylenediamine tetraacetate 0.03) was “A”. For the same compound, the “Sunlight exposure” value ([2]; synthetic perfume cis-3-Hexenol 0.03, photostabilizer 0.02, no sequestering agent) was “B”, the “Sunlight exposure” value ([2]; synthetic perfume β-ionone 0.03, photostabilizer 0.01 + Trisodium ethylenediamine tetraacetate 0.03) was “A” and the “Sunlight exposure” value ([2]; synthetic perfume β-ionone 0.03, photostabilizer 0.01, no sequestering agent) was “B”. The smell change ([2]; synthetic perfume, Table 28) was “very small”.

— US6395896B2, “Pyridazine derivatives, manufacturing method and related composition” (Shiseido Co., Ltd., priority 1999, dated 2002)
